Common to all, as to format: biochemical
In assay [1] the target is T1, recombinant human GBA (beta-glucocerebrosidase) (Homo sapiens, UniProt P04062).
T1 sequence (P04062 40-536): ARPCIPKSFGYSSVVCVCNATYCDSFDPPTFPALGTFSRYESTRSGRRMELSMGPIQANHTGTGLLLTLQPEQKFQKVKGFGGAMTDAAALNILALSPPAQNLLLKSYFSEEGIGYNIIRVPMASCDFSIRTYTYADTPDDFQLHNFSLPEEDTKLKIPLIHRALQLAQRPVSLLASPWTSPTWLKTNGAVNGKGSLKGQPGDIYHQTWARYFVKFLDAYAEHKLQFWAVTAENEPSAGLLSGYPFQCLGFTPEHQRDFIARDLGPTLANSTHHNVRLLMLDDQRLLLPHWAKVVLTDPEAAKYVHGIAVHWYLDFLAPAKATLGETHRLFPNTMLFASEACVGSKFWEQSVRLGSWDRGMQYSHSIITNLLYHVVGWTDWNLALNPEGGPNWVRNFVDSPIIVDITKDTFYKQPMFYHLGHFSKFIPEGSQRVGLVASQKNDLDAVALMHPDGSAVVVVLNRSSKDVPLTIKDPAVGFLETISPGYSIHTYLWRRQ
Nature of the assay: Beta-glucocerebrosidase (GBA, glucosylceramidase) assay (4-methylumbelliferyl-beta-D-pyranoside substrate, fluorescence). The method in brief:
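Recombinant human GBA preincubated with compound dilutions 60 min at 37 °C, then 4-methylumbelliferyl-beta-D-pyranoside added for 60 min at 37 °C. Stopped at pH 10 (glycine/NaOH); fluorescence ex 365/em 440 nm. IC50 from 4-PL fit of inhibition relative to untreated enzyme.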

For assay [2], the target named is rat maltase (partially purified alpha-glucosidase from intestinal rat powder). The experiment in a line: Intestinal alpha-glucosidase assay, maltose substrate (Glucose GO Kit). The essentials:
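Enzyme from intestinal rat powder, partially purified, is exposed to compound for 60 min at 37 °C. Disaccharide substrate (maltose or sucrose respectively) then reacts 30 min at 37 °C. Heat-stopped samples are assayed for glucose, and percent inhibition versus concentration gives IC50 via 4-PL.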

The target in assay [3] is rat sucrase (partially purified alpha-glucosidase from intestinal rat powder) (Rattus norvegicus, UniProt P23739). Nature of the assay: Intestinal alpha-glucosidase assay, sucrose substrate (Glucose GO Kit). The essentials: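 Partially purified rat intestinal alpha-glucosidase preincubated 60 min at 37 °C with serial compound dilutions, then sucrose substrate added for 30 min at 37 °C. Reaction stopped by 5 min at 90 °C; released glucose detected with Glucose GO kit. IC50 from 4-PL fit of % inhibition vs concentration.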
rat sucrase (partially purified alpha-glucosidase from intestinal rat powder), sequence (P23739 whole entry): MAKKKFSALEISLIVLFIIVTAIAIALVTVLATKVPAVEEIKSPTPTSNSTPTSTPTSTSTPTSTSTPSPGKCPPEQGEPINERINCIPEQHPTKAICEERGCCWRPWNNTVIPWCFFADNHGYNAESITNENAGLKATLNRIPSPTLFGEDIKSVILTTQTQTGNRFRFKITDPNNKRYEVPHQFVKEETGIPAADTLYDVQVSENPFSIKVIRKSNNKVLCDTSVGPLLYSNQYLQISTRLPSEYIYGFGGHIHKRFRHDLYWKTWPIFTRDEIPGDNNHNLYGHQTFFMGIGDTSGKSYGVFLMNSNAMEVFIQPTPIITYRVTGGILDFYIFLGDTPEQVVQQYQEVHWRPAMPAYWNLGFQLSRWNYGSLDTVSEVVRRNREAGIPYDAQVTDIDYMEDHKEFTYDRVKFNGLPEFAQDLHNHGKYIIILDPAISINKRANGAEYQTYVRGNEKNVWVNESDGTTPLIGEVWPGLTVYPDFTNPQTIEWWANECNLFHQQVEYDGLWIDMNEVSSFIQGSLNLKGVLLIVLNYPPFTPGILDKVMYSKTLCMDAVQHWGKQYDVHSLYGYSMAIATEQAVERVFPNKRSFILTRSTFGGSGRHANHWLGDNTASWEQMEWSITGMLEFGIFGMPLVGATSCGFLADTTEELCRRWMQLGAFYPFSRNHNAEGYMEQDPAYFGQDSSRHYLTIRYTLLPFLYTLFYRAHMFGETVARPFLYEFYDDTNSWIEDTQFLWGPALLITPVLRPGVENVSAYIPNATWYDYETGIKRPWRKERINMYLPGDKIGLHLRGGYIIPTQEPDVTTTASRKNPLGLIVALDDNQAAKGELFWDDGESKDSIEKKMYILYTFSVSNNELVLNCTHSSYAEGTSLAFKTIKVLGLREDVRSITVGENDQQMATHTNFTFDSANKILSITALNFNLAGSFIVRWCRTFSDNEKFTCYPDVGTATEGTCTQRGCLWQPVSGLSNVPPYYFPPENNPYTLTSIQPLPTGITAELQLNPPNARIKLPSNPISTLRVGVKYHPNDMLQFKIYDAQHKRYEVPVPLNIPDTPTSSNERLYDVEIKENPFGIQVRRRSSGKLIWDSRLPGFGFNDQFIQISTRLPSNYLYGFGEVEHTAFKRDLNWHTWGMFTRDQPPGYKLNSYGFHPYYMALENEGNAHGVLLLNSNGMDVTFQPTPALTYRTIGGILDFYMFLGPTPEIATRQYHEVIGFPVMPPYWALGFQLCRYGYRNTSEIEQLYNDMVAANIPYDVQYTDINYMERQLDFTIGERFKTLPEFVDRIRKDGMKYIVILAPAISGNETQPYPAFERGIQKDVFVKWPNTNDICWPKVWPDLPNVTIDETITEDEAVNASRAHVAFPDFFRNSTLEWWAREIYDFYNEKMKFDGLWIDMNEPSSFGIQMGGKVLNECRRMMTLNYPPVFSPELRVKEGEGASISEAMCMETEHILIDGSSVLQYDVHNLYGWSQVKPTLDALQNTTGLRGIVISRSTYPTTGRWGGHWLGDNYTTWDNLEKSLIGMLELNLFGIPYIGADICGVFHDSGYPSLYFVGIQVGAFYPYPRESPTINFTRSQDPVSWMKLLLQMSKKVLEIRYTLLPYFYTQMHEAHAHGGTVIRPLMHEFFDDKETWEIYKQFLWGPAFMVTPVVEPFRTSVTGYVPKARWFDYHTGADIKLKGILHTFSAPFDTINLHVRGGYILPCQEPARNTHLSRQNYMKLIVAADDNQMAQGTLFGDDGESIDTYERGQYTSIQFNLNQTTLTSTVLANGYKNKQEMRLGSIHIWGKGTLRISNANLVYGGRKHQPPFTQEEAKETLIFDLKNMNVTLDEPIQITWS

Where only a bound is given, the exact number is not on record here.

What is called IC50 is the point on the concentration scale where inhibition reaches its midpoint.

As for `OC[C@@H]1[C@@H](O)[C@H](O)[C@@H](O)CN1Cc1ccc(CNc2ccc(CN3CCCO3)cc2)cc1` [Compound 1092, (2R,3R,4R,5S)-2-(hydroxymethyl)-1-({4-[({4-[(1,2-oxazolidin-2-yl)methyl]phenyl}amino)methyl]phenyl}methyl)piperidine-3,4,5-triol], the IC50 in assay [1] was 121000 nM; in assay [2], 38 nM; in assay [3] it was 48 nM.
For `OC[C@@H]1[C@@H](O)[C@H](O)[C@@H](O)CN1Cc1ccc(CNc2ccc(-c3ncccn3)cc2)cc1` [Compound 1096, (2R,3R,4R,5S)-2-(hydroxymethyl)-1-{[4-({[4-(pyrimidin-2-yl)phenyl]amino}methyl)phenyl]methyl}piperidine-3,4,5-triol], the IC50 in assay [1] was found to be 17600 nM; in assay [2], 11 nM; in assay [3], 23 nM.
The like results for `CC(C)c1cc(CCNc2ccc(N=[N+]=[N-])cc2[N+](=O)[O-])cc(CCN2C[C@H](O)[C@@H](O)[C@H](O)[C@H]2CO)c1` [Compound 1077, (2R,3R,4R,5S)-1-[2-(3-{2-[(4-azido-2-nitrophenyl)amino]ethyl}-5-(propan-2-yl)phenyl)ethyl]-2-(hydroxymethyl)piperidine-3,4,5-triol] were, in that order, 379 nM, 6650 nM and 8140 nM.
The like results for `O=[N+]([O-])c1cc(-c2ccncc2)ccc1NCCc1ccc(CCN2C[C@H](O)[C@@H](O)[C@H](O)[C@H]2CO)cc1` [Compound 1110, (2R,3R,4R,5S)-2-(hydroxymethyl)-1-{2-[4-(2-{[2-nitro-4-(pyridin-4-yl)phenyl]amino}ethyl)phenyl]ethyl}piperidine-3,4,5-triol] were, in that order, 48 nM, under 1 nM and 63 nM.
The corresponding values for `OC[C@@H]1[C@@H](O)[C@H](O)[C@@H](O)CN1CCc1ccc(CCNc2cc(Cl)cc(-c3noc(C4CCC4)n3)c2)cc1` [Compound 1122, (2R,3R,4R,5S)-1-{2-[4-(2-{[3-chloro-5-(5-cyclobutyl-1,2,4-oxadiazol-3-yl)phenyl]amino}ethyl)phenyl]ethyl}-2-(hydroxymethyl)piperidine-3,4,5-triol] are 6 nM, 717 nM and 1660 nM.
In the case of `O=S(=O)(Nc1cc(NCCCCCCN2C[C@H](O)[C@@H](O)[C@H](O)[C@H]2CO)cc(-c2ncccn2)c1)C1CC1` [Compound 1114, N-[3-(pyrimidin-2-yl)-5-({6-[(2R,3R,4R,5S)-3,4,5-trihydroxy-2-(hydroxymethyl)piperidin-1-yl]hexyl}amino)phenyl]cyclopropanesulfonamide], the 50% inhibitory concentration (IC50) stood at 5140 nM in assay [1], 5 nM in assay [2] and 52 nM in assay [3].
The like results for `O=[N+]([O-])c1cc(CN2CCCO2)ccc1NCc1cccc(CN2C[C@H](O)[C@@H](O)[C@H](O)[C@H]2CO)c1` [Compound 1086] were, in that order, over 100000 nM, 124 nM and 76 nM.
The like results for `Cc1cc(NCc2ccc(CN3C[C@H](O)[C@@H](O)[C@H](O)[C@H]3CO)cc2)cc(C2=COCCO2)c1` [Compound 1050, (2R,3R,4R,5S)-1-{[4-({[3-(5,6-dihydro-1,4-dioxin-2-yl)-5-methylphenyl]amino}methyl)phenyl]methyl}-2-(hydroxymethyl)piperidine-3,4,5-triol] were, in that order, over 100000 nM, under 1 nM and 4 nM.
The corresponding values for `CS(=O)(=O)c1cc(NCc2ccc(CN3C[C@H](O)[C@@H](O)[C@H](O)[C@H]3CO)cc2)cc(-c2ncccn2)c1` [Compound 1059, (2R,3R,4R,5S)-2-(hydroxymethyl)-1-{[4-({[3-methanesulfonyl-5-(pyrimidin-2-yl)phenyl]amino}methyl)phenyl]methyl}piperidine-3,4,5-triol] are over 100000 nM, 8 nM and 45 nM.
For `OC[C@@H]1[C@@H](O)[C@H](O)[C@@H](O)CN1Cc1cccc(CNc2ccc(-c3cccnn3)cc2)c1` [Compound 1083, (2R,3R,4R,5S)-2-(hydroxymethyl)-1-{[3-({[4-(pyridazin-3-yl)phenyl]amino}methyl)phenyl]methyl}piperidine-3,4,5-triol], the IC50 was over 100000 nM in assay [1], 54 nM in assay [2] and 28 nM in assay [3].
The like results for `[N-]=[N+]=Nc1ccc(NCC[C@H]2CC[C@@H](CCN3C[C@H](O)[C@@H](O)[C@H](O)[C@H]3CO)CC2)c([N+](=O)[O-])c1` [Compound 1106, (2R,3R,4R,5S)-2-(hydroxymethyl)-1-{2-[(1s,4s)-4-{2-[(4-azido-2-nitrophenyl)amino]ethyl}cyclohexyl]ethyl}piperidine-3,4,5-triol] were, in that order, 6970 nM, 31 nM and 6 nM.
The corresponding values for `N#Cc1cc(NCc2ccc(CN3C[C@H](O)[C@@H](O)[C@H](O)[C@H]3CO)cc2)cc(-c2ccc[nH]2)c1` [Compound 1063, 3-(1H-pyrrol-2-yl)-5-{[(4-{[(2R,3R,4R,5S)-3,4,5-trihydroxy-2-(hydroxymethyl)piperidin-1-yl]methyl}phenyl)methyl]amino}-benzonitrile] are over 100000 nM, under 1 nM and under 1 nM.
The like results for `[N-]=[N+]=Nc1ccc(NCCC23CC(CCN4C[C@H](O)[C@@H](O)[C@H](O)[C@H]4CO)(C2)C3)c([N+](=O)[O-])c1` [Compound 1103, (2R,3R,4R,5S)-1-[2-(3-{2-[(4-azido-2-nitrophenyl)amino]ethyl}bicyclo[1.1.1]pentan-1-yl)ethyl]-2-(hydroxymethyl)piperidine-3,4,5-triol] were, in that order, 11900 nM, 279 nM and 569 nM.
Take `OC[C@@H]1[C@@H](O)[C@H](O)[C@@H](O)CN1CCc1cn(CCNc2ccccc2)c2ccccc12` [Compound 1076, (2R,3R,4R,5S)-2-(hydroxymethyl)-1-(2-{1-[2-(phenylamino)ethyl]-1H-indol-3-yl}ethyl)piperidine-3,4,5-triol]: the IC50 in assay [1] came out at 7810 nM; in assay [2], 250 nM; in assay [3], 854 nM.
`O=[N+]([O-])c1cc(-c2ccc[nH]2)ccc1NCc1cccc(CN2C[C@H](O)[C@@H](O)[C@H](O)[C@H]2CO)c1` [Compound 1088, (2R,3R,4R,5S)-2-(hydroxymethyl)-1-{[3-({[2-nitro-4-(1H-pyrrol-2-yl)phenyl]amino}methyl)phenyl]methyl}piperidine-3,4,5-triol]: the 50% inhibitory concentration (IC50) is 68400 nM in assay [1], under 1 nM in assay [2] and under 1 nM in assay [3].
Turning to `O=C(O)c1cc(NCCCCCCN2C[C@H](O)[C@@H](O)[C@H](O)[C@H]2CO)cc(-c2ncccn2)c1` [Compound 1118, 3-(pyrimidin-2-yl)-5-({6-[(2R,3R,4R,5S)-3,4,5-trihydroxy-2-(hydroxymethyl)piperidin-1-yl]hexyl}amino) benzoic acid], the half-inhibitory concentration (IC50) in assay [1] was 2430 nM; in assay [2] it was 4 nM; in assay [3], 58 nM.
Regarding `N#Cc1cc(NCc2ccc(CN3C[C@H](O)[C@@H](O)[C@H](O)[C@H]3CO)cc2)cc(C2=COCCO2)c1` [Compound 1062, 3-(5,6-dihydro-1,4-dioxin-2-yl)-5-{[(4-{[(2R,3R,4R,5S)-3,4,5-trihydroxy-2-(hydroxymethyl)piperidin-1-yl]methyl}phenyl)-methyl]amino}benzonitrile], the figures for the 50% inhibitory concentration (IC50) in assay [1], in assay [2] and in assay [3] were 35500 nM, under 1 nM and under 1 nM, respectively.
As for `N#Cc1cc(NCc2ccc(CN3C[C@H](O)[C@@H](O)[C@H](O)[C@H]3CO)cc2)cc(N2CCOCC2)c1` [Compound 1060, 3-(morpholin-4-yl)-5-{[(4-{[(2R,3R,4R,5S)-3,4,5-trihydroxy-2-(hydroxymethyl)piperidin-1-yl]methyl}phenyl)methyl]amino}-benzonitrile], the IC50 in assay [1] was over 100000 nM; in assay [2], 9 nM; in assay [3] it was 52 nM.
The like results for `[N-]=[N+]=Nc1ccc(NCc2ccc(Cc3ccc(CN4C[C@H](O)[C@@H](O)[C@H](O)[C@H]4CO)cc3)cc2)c([N+](=O)[O-])c1` [Compound 1105, (2R,3R,4R,5S)-1-({4-[(4-{[(4-azido-2-nitrophenyl)amino]methyl}phenyl)methyl]phenyl}methyl)-2-(hydroxymethyl)piperidine-3,4,5-triol] were, in that order, 9090 nM, 6 nM and 12 nM.
The corresponding values for `N#Cc1cc(NCc2cccc(CN3C[C@H](O)[C@@H](O)[C@H](O)[C@H]3CO)c2)cc(-c2ccc[nH]2)c1` [Compound 1045, 3-(1H-pyrrol-2-yl)-5-{[(3-{[(2R,3R,4R,5S)-3,4,5-trihydroxy-2-(hydroxymethyl)piperidin-1-yl]methyl}phenyl)methyl]amino}benzonitrile] are 60700 nM, under 1 nM and under 1 nM.

Values taken from patent US20250197372A1 (priority 2020, published 2025).
